Results as given in PMC9501232, “Novel 4-Azapregnene Derivatives as Potential Anticancer Agents: Synthesis, Antiproliferative Activity and Molecular Docking Studies” (Molecules, 2022).

Key:
[1] = tested on: LNCaP cells; assay: MTT cell proliferation assay, LNCaP; assay type: cell-based, human; settings: 72 h; for MTT screening, cell proliferation: 30 µM, average ± SD; for IC50: Homo sapiens, MTT
Protocol: (§1) Cell lines, namely LNCaP, PC-3, T47-D and NHDF were obtained from American Type Culture Collection (ATCC; Manassas, VA, USA) and cultured in 75 cm^2 culture flasks at 37 °C in a humidified air incubator with 5% CO2. LNCaP, PC-3 and T47-D cells, which were used in passages 20th to 27th, 25th to 29th and 10th to 15th, respectively, were cultured in RPMI 1640 medium (Sigma-Aldrich, Inc., St. Louis, MO, USA) with 10% fetal bovine serum (FBS; Sigma-Aldrich, Inc. St. Louis, MO, USA) and 1% of the antibiotic mixture of 10,000 IU/mL penicillin G and […] of streptomycin (Sp, Sigma-Aldrich, Inc. St. Louis, MO, USA). Finally, NHDF cells (Normal Human Dermal Fibroblasts) were cultured in RPMI 1640 medium supplemented with 10% FBS, 2 mM L-glutamine, 10 mM HEPES, 1 mM sodium pyruvate and 1% of an antibiotic/antimycotic mixture (10,000 U/mL penicillin G, 100 mg/mL streptomycin and 25 µg/mL amphotericin B) (Ab; Sigma-Aldrich, Inc. St. Louis, MO, USA), and these cells were used in passages 10 to 12. For all cell types, the medium was renewed every 2–3 days until cells reach nearly the confluence state. Then, they were detached gently by trypsinization (trypsin-EDTA solution: 0.125 g/L of trypsin and 0.02 g/L of EDTA).
(§2) All the stock solutions were prepared by dissolving compounds in dimethyl sulfoxide (DMSO; Sigma-Aldrich, Inc., St. Louis, MO, USA) at 10 mM and stored at 4 °C. From these solutions, the several diluted compounds solutions in different concentrations were freshly prepared in a complete culture medium before each experiment.
(§3) As previously referred, cells were trypsinized after reaching a near confluence state and counted by the trypan blue exclusion assay in a Neubauer chamber. Then, 100 µL of cell suspension/well with an initial density of 2 × 10^4 cells/mL were seeded in 96-well culture plates (Nunc, Apogent, Denmark) and left to adhere for 48 h. After cells adherence, the medium was replaced by the distinct solutions of the compounds in the study (30 µM for preliminary studies and 0.01, 0.1, 1, 10, 50 and 100 µM for concentration–response studies) in the appropriate medium for approximately 72 h. 5-FU and finasteride were used as positive controls and untreated cells were used as the negative control. Each experiment was performed in quadruplicate and independently performed at least two times. The in vitro antiproliferative effects were evaluated by the MTT assay (Sigma-Aldrich, Inc. St. Louis, USA). After the incubation period, the medium was removed and 100 µL of phosphate buffer saline (NaCl 137 mM, KCl 2.7 mM, Na2HPO4 10 mM and KH2PO4 1.8 mM in deionized water and pH adjusted to 7.4) were used to wash the cells. Then, 100 µL of the MTT solution (5 mg/mL) was prepared in the appropriate serum-free medium and was added to each well, followed by incubation for 4 h at 37 °C. Hereafter, the MTT containing medium was removed and the formazan crystals were dissolved in DMSO. Then the absorbance was measured at 570 nm using a microplate spectrophotometer BIO-RAD xMarkTM. Cell viability values were expressed as percentages relative to the absorbance determined in the cells used as negative controls.
(§4) The data are expressed as a mean ± standard deviation (SD) and differences between groups were considered statistically significant when p < 0.05. The IC50 values were determined through sigmoidal fitting analysis with variable slope and considering a 95% confidence level. All data shown are representative of at least two independent experiments.

[2] = tested on: T47-D cells; assay: MTT cell proliferation assay, T47-D; assay type: cell-based, human; settings: 72 h; for MTT screening, cell proliferation: 30 µM, average ± SD; for IC50: Homo sapiens, T47D, MTT
Protocol: as §1, §2, §3, §4

[3] = tested on: NHDF cells (Normal Human Dermal Fibroblasts); assay: MTT cell proliferation assay, NHDF; assay type: cell-based; settings: 72 h; for MTT screening, cell proliferation: 30 µM, average ± SD; for IC50: Homo sapiens, MTT
Protocol: as §1, §2, §3, §4

[4] = tested on: PC-3 cells; assay: MTT cell proliferation assay, PC-3; assay type: cell-based, human; settings: for MTT screening, cell proliferation: PC-3, 30 µM, 72 h, average ± SD; for IC50: Homo sapiens, PC-3, 72 h, MTT
Protocol: as §1, §2, §3, §4

[5] = tested on: T47-D cells; assay: Cell nuclear morphology and distribution analysis with ImageJ; assay type: cell-based, human; settings: 20 µM, 48 and 72 h
From the text: The nuclear measurements were achieved by converting 16-bit photomicrographs of Hoechst 3342-stained nuclei, in different conditions, into 8-bit images and then these images were autothresholded to binary photos using the default method “Make binary” function of ImageJ v 1.49. Cell nuclei that are touching were separated and fragments were discarded based on the area through the “Analyze Particle” function. This function also provides several information pretended as nuclear area, circumference and form factor [33]. In addition, the “Nearest Neighbor Distance” was determined. This function allows measuring the distance between each cell nucleus and the nearest ones.

[6] = tested on: caspase-9 activity in T47-D cells; assay: Caspase-Glo 9 caspase-9 activity assay; assay type: cell-based, human; settings: 48 h, DOX 10 µM, 3g 10 and 20 µM, relative to untreated cells
Protocol: Promega Caspase-Glo 9 assay (Promega, Madison, WI, USA) was employed to evaluate the caspase-9 activity. T47-D cells were seeded in a 96 multiwell plate at a density of 4 × 10^4 cells/mL. After 48 h, cells were treated with the positive control, DOX, at 10 μM and with 10 and 20 μM of 3g, during 48 h. The assay was performed at the end of treatment, following the instructions provided by the manufacturer. Data are representative of at least two experiments (n = 4 in each).

Compound	MTT screening, cell proliferation [1]	MTT screening, cell proliferation [2]	MTT screening, cell proliferation [3]	MTT screening, cell proliferation [4]	IC50 [1]	IC50 [2]	IC50 [3]	IC50 [4]	melting point	Nearest neighbor distance (NND) of cell nuclei [5]	Caspase-9 activity [6]
C[C@]12CCC(=O)C[C@@H]1CC[C@@H]1[C@@H]2CC[C@]2(C)[C@@H](O)CC[C@@H]12 [DHT, 5α-dihydrotestosterone, reference compound]	138.9 ± 3.9 percentage of negative control	90.7 ± 9.4 percentage of negative control	100.5 ± 7.4 percentage of negative control	93.1 ± 4.9 percentage of negative control	–	–	–	–	–	–	–
C[C@]12CC[C@H]3[C@@H](CC=C4NC(=O)CC[C@@]43C)[C@@H]1CC[C@@H]2C(=O)/C=C/c1ccc([N+](=O)[O-])cc1 [Compound 3c, 21E-[(4-Nitrophenyl)methylidene]-4-azapregn-5-ene-3,20-dione]	5.2 ± 2.6 percentage of negative control	6.7 ± 4.6 percentage of negative control	20.3 ± 2.8 percentage of negative control	0.7 ± 0.5 percentage of negative control	16.3 µM	6.56 µM	6.94 µM	3.29 µM	–	–	–
Cc1ccc(/C=C/C(=O)[C@H]2CC[C@H]3[C@@H]4CC=C5NC(=O)CC[C@]5(C)[C@H]4CC[C@]23C)cc1 [Compound 3b, 21E-[(4-Methylphenyl)methylidene]-4-azapregn-5-ene-3,20-dione]	62.7 ± 9.0 percentage of negative control	45.0 ± 11.6 percentage of negative control	83.0 ± 3.6 percentage of negative control	25.9 ± 3.8 percentage of negative control	–	45 µM	–	25.9 µM	191 to 193 °C	–	–
CC(=O)[C@H]1CCC2C3CCC(=O)[C@](C)(CCC(=O)O)C3CC[C@@]21C (stereo partly drawn) [Compound 1]	96.4 ± 16.1 percentage of negative control	130.8 ± 20.8 percentage of negative control	100.0 ± 6.0 percentage of negative control	102.1 ± 5.2 percentage of negative control	–	–	–	–	168 to 169 °C	–	–
Cc1ccc(/C=C/C(=O)[C@H]2CC[C@H]3[C@@H]4CC=C5NC(=O)CC[C@]5(C)[C@H]4CC[C@]23C)o1 [Compound 3f, 21E-[(5-Methylfuran-2-yl)methylidene]-4-azapregn-5-ene-3,20-dione]	88.9 ± 17.7 percentage of negative control	104.3 ± 11.3 percentage of negative control	89.7 ± 9.7 percentage of negative control	108.1 ± 7.8 percentage of negative control	–	–	–	–	200 to 203 °C	–	–
C[C@]12CC[C@H]3[C@@H](CC=C4NC(=O)CC[C@@]43C)[C@@H]1CC[C@@H]2C(=O)/C=C/c1ccco1 [Compound 3e, 21E-[(Furan-2-yl)methylidene]-4-azapregn-5-ene-3,20-dione]	85.3 ± 6.7 percentage of negative control	92.6 ± 7.4 percentage of negative control	111.6 ± 13.9 percentage of negative control	82.7 ± 6.5 percentage of negative control	–	–	–	–	260 to 261 °C	–	–
C[C@]12CC[C@H]3[C@@H](CCC4=CC(=O)CC[C@@]43C)[C@@H]1CC[C@@H]2O [Testosterone, reference compound]	99.2 ± 4.2 percentage of negative control	72.0 ± 4.0 percentage of negative control	94.2 ± 7.3 percentage of negative control	89.5 ± 9.0 percentage of negative control	–	–	–	–	–	–	–
C[C@]12CC[C@H]3[C@@H](CC=C4NC(=O)CC[C@@]43C)[C@@H]1CC[C@@H]2C(=O)/C=C/c1ccccc1 [Compound 3a, 21E-(Phenylmethylidene)-4-azapregn-5-ene-3,20-dione]	6.5 ± 5.3 percentage of negative control	6.5 ± 5.4 percentage of negative control	25.1 ± 7.4 percentage of negative control	1.4 ± 1.0 percentage of negative control	27.5 µM	16.9 µM	64 µM	12.6 µM	–	–	–
O=c1[nH]cc(F)c(=O)[nH]1 [Compound 5-FU, 5-fluorouracil, reference compound]	18.6 ± 2.6 percentage of negative control	42.3 ± 6.4 percentage of negative control	33.6 ± 8.2 percentage of negative control	10.8 ± 3.1 percentage of negative control	1.5 µM	0.7 µM	29.4 µM	3.3 µM	–	different distances	–
4-Azapregn-4-ene-3,20-dione [Compound 2]	58.3 ± 13.6 percentage of negative control	137.0 ± 18.0 percentage of negative control	106.1 ± 6.0 percentage of negative control	96.7 ± 9.3 percentage of negative control	–	–	–	–	–	–	–
COc1ccc(/C=C/C(=O)[C@H]2CC[C@H]3[C@@H]4CC=C5NC(=O)CC[C@]5(C)[C@H]4CC[C@]23C)cc1 [Compound 3d, 21E-[(4-Methoxyphenyl)methylidene]-4-azapregn-5-ene-3,20-dione]	88.0 ± 15.5 percentage of negative control	73.9 ± 14.6 percentage of negative control	52.4 ± 2.8 percentage of negative control	58.2 ± 6.0 percentage of negative control	–	–	–	–	280 to 282 °C	–	–
CC(=O)[C@H]1CC[C@H]2[C@@H]3CCC4=CC(=O)CC[C@]4(C)[C@H]3CC[C@]12C [Progesterone, reference compound]	64.3 ± 16.1 percentage of negative control	62.9 ± 6.8 percentage of negative control	96.6 ± 14.3 percentage of negative control	42.9 ± 5.4 percentage of negative control	–	–	–	–	–	–	–
COc1cccc2c1C(=O)c1c(O)c3c(c(O)c1C2=O)C[C@@](O)(C(=O)CO)C[C@@H]3O[C@H]1C[C@H](N)[C@H](O)[C@H](C)O1 [DOX, doxorubicin, reference compound]	–	–	–	–	–	–	–	–	–	–	significant elevation in caspase-9 activity
